{
  "source": "patent US20110135768A1",
  "about": "“DIHYDRO-ISOALPHA ACID AND ACACIA NILOTICA EXTRACT BASED COMPOSITIONS AND METHODS FOR WEIGHT MANAGEMENT” (Metaproteomics, LLC, priority 2009, published 2011)",
  "origin": "cited, not measured here",
  "details": "rats, intra-cerebroventricular administration",
  "note": "Ends that are not written are not given here.",
  "data": [
    {"substance": "GLP-1: glucagon-like peptide-1, a 30 amino acid peptide derived from proglucagon gene (HAEGTFTSDVSSYLEGQAAKEFIAWLVKGR; ends and bridges not checked; UniProt P01275 98-127, looked up)", "values": [
      {"measurement": "body weight", "result": "reduce"},
      {"measurement": "eating", "result": "inhibit"}
    ]}
  ]
}
